Source: PubChem BioAssay (NCI)
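Each compound was tested at five concentrations against cells in 96-well plates for 48 hours. At the GI50, growth is halved. Definition used: TGI = concentration required for complete inhibition of growth.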

What was measured:
Experiment in all cases: growth of human tumour cells (NCI), 48 h
[1] = system: A498 renal
[2] = system: A549 NSCLC
[3] = system: CAKI-1 renal
[4] = system: DU-145 prostate
[5] = system: K-562 leukemia
[6] = system: KM12 colon
[7] = system: LOX IMVI melanoma
[8] = system: NCI-H23 lung
[9] = system: NCI/ADR-RES ovarian
[10] = system: PC-3 prostate

Compound	TGI [1] [µM]	TGI [2] [µM]	TGI [3] [µM]	TGI [4] [µM]	TGI [5] [µM]	TGI [6] [µM]	TGI [7] [µM]	TGI [8] [µM]	TGI [9] [µM]	TGI [10] [µM]	GI50 [1] [µM]	GI50 [2] [µM]	GI50 [3] [µM]	GI50 [4] [µM]	GI50 [5] [µM]	GI50 [6] [µM]	GI50 [7] [µM]	GI50 [8] [µM]	GI50 [9] [µM]	GI50 [10] [µM]
O=CNC(Cc1cnc[nH]1)C(=O)O (stereo not given)	> 100	> 100	> 100	> 100	> 100	> 100	> 100	> 100	> 100	> 100	–	–	–	–	–	–	–	–	–	–
O=C(O)c1cccc([As]=[As]c2cccc(C(=O)O)c2)c1 (stereo not given)	75.7	> 100	37.1	> 100	> 100	> 100	69.6	> 100	> 100	36.7	–	–	–	–	–	–	–	–	–	–
CN[C@@H](C)C(=O)N[C@H](C(=O)N1CCC[C@H]1c1nc(C(=O)c2ccc(F)cc2)cs1)C1CCCCC1	25.4	> 100	> 100	> 100	38.7	51.4	37	> 62.1	> 66	> 73.6	6.59	35.2	34.9	44.5	17	21.8	19	11.2	21.2	24.1
O=[N+]([O-])c1ccccc1/C=N\NC(=S)N/N=C/c1ccccc1[N+](=O)[O-]	28.4	> 100	> 100	38.2	> 100	> 100	> 100	> 100	> 100	> 100	2.49	8.92	3.46	5.34	3.43	2.55	6.48	10.8	2.66	10
O=[N+]([O-])c1ccc(Sc2cccc[n+]2[O-])c2nonc12	91.9	> 57.2	15.4	13.1	> 100	14.4	11.7	26.8	> 52.7	13	4.88	5.61	4.85	3.55	2.1	4.02	3.28	7.97	5.73	2.6
CNc1c2ccccc2nc2occ(Cl)c12	41.7	> 100	33.2	> 100	> 100	> 100	75.2	> 100	> 100	> 100	11.9	31	12	41.5	26.4	32.6	25.5	40.9	30.1	26.5
CN1CCN(C2=C(Cl)C(=O)c3ccccc3C2=O)CC1	4.25	11.2	3.39	3.11	7.57	16.7	3	3.65	4.57	8.91	0.0132	3.42	1.77	1.74	1.65	5.27	1.6	1.72	2.03	3.45
COc1ccc(Cn2cc3c(c2-c2ccccc2)CCc2cnoc2-3)cc1	> 95.5	> 100	> 100	2.57	> 100	2.97	> 100	> 100	11.9	> 100	0.209	0.293	0.0883	0.359	0.0404	0.103	0.38	0.234	0.0462	0.096
O=C1c2ccccc2C(=O)N1c1ccc(Cc2ccc(N3C(=O)c4ccccc4C3=O)cc2)cc1	> 100	> 100	> 100	> 100	> 100	> 100	> 100	> 100	> 100	> 100	–	–	–	–	–	–	–	–	–	–
CC(NCCN(C)C)C1CCC2C3CCc4cc(O)ccc4C3CCC12C (stereo not given)	8.38	13.6	4.32	18.6	4.81	10.3	4.75	16.5	8.97	11.7	–	–	–	–	–	–	–	–	–	–
O=C(O)/C=C/c1c2ccc(=O)c(O)c-2oc2c(O)c(O)ccc12	> 100	> 100	> 100	> 100	50.2	> 100	62.2	> 100	> 100	> 100	–	–	–	–	–	–	–	–	–	–
O=C(c1ccc(Cl)cc1Cl)N1CCN(C(=O)c2ccc(Cl)cc2Cl)C1=S	36.5	43.2	52.1	98.9	> 100	29.4	30.8	43.4	74.3	68.3	16.1	20.1	22.1	30.6	31.4	15.3	17.1	19.8	24.8	22.7
COc1cc(C[C@H]2COC(=O)[C@]2(O)Cc2ccc(OCc3ccccc3)c(OC)c2)ccc1OCc1ccccc1	99.1	> 100	> 100	> 100	> 100	> 100	> 100	> 100	> 100	> 100	27.5	7.13	19.4	85.9	62.3	7.3	35.9	30.6	5.18	74.7
COc1ccc(C2=Nn3c(nnc3-c3ccc(F)c(Cl)c3)SC2)cc1	> 100	> 100	> 100	> 100	> 100	> 100	> 100	> 100	> 100	> 100	> 100	> 100	> 100	> 100	> 100	> 100	> 100	> 100	> 100	> 100
Nc1n[n+]([O-])c2ccc(Cl)cc2[n+]1[O-]	96.6	> 100	91.2	> 100	> 100	32.6	> 100	46.4	> 100	> 100	–	–	–	–	–	–	–	–	–	–
